Like-named read-outs stand apart in the source and are kept apart here.
Assays:
HL-60 cells = experiment: HL-60 differentiation (nitro blue tetrazolium reduction); type: cell-based, human; conditions: 4 days, NBT reduction, FIG. 2, read-out: EC50, HL-60 cell differentiation
Method: The study drugs were dissolved in ethanol and the concentrations determined using UV spectrophotometry. Serial dilutions were prepared so that a range of drug concentrations could be tested without changing the final concentration of ethanol (≦0.2%) present in the cell cultures.
Human promyelocytic leukemia (HL60) cells were grown in RPMI-1640 medium containing 10% fetal bovine serum. The cells were incubated at 37° C. in the presence of 5% CO2.
HL60 cells were plated at 1.2×10^5 cells/ml. Eighteen hours after plating, cells in duplicate were treated with drug. Four days later, the cells were harvested and a nitro blue tetrazolium reduction assay was performed (Collins et al., 1979; J. Exp. Med. 149:969-974). The percentage of differentiated cells was determined by counting a total of 200 cells and recording the number that contained intracellular black-blue formazan deposits. Verification of differentiation to monocytic cells was determined by measuring phagocytic activity (data not shown).

vitamin D-deficient rats [1] = experiment: Bone calcium mobilization (serum calcium); type: in vivo, rat; conditions: for bone calcium mobilization (serum calcium levels): all dosages / overall, FIGS. 4A and 4B; for bone calcium mobilization (serum calcium): rats on low calcium diet (0.02%)
Method: (§1) Male, weanling Sprague-Dawley rats were placed on Diet 11 (0.47% Ca) diet +AEK oil for one week followed by Diet 11 (0.02% Ca) +AEK oil for 3 weeks. The rats were then switched to a diet containing 0.47% Ca for one week followed by two weeks on a diet containing 0.02% Ca. Dose administration began during the last week on 0.02% calcium diet. Four consecutive ip doses were given approximately 24 hours apart. Twenty-four hours after the last dose, blood was collected from the severed neck and the concentration of serum calcium determined as a measure of bone calcium mobilization. The first 10 cm of the intestine was also collected for intestinal calcium transport analysis using the everted gut sac method.
Calcium mobilization from bone and intestinal calcium absorption in vitamin D-deficient animals.

vitamin D-deficient rats [2] = experiment: Intestinal calcium transport, everted gut sac method; type: in vivo, rat; conditions: for intestinal calcium transport: everted gut sac
Method: as §1
Intestinal calcium transport was evaluated in the same groups of animals using the everted gut sac method (FIGS. 5A and 5B).

[3] = system: 24-hydroxylase (24Ohase) gene promoter; experiment: In vitro transcription assay, luciferase reporter in ROS 17/2.8 (bone) cells; type: cell-based; conditions: ROS 17/2.8 cells, 24-hydroxylase promoter luciferase, 16 h; FIG. 3; read-out: EC50, transcriptional activity in bone cells
Method: Transcription activity was measured in ROS 17/2.8 (bone) cells that were stably transfected with a 24-hydroxylase (24Ohase) gene promoter upstream of a luciferase reporter gene (Arbour et al., 1998). Cells were given a range of doses. Sixteen hours after dosing the cells were harvested and luciferase activities were measured using a luminometer.
RLU=relative luciferase units.

[4] = 260 pmol/day ip for 4 consecutive days
[5] = 7020 pmol/day ip for 4 consecutive days

SMILES	EC50 (HL-60 cells)	bone calcium mobilization (serum calcium levels) (vitamin D-deficient rats [1])	intestinal calcium transport (vitamin D-deficient rats [2]; [4])	EC50 (HL-60 cells; Homo sapiens, 96 h)	EC50 [3]	bone calcium mobilization (serum calcium) (vitamin D-deficient rats [1]; [4])	bone calcium mobilization (serum calcium) (vitamin D-deficient rats [1]; [5])	times less potent than the native hormone in mobilizing bone calcium store (vitamin D-deficient rats [1]; rats, compared to 1,25(OH)2D3, same increase in serum calcium)	intestinal calcium transport (vitamin D-deficient rats [2]; [5])	intestinal calcium transport activity compared to 1,25(OH)2D3 (vitamin D-deficient rats [2]; overall, FIGS. 5A and 5B, two batches of rats)
C=C1/C(=C\C=C2/CCC[C@]3(C)[C@@H]([C@H](C)CCCC(C)(C)O)CC[C@@H]23)C[C@@H](O)C[C@@H]1O [1,25(OH)2D3, 1α,25-dihydroxyvitamin D3, reference compound]	2 nM	increased serum calcium levels at all dosages	promotes a significant increase							
C=C1[C@H](O)CC(=C/C=C2\CCC[C@@]3(C)C2CC[C@@H]3[C@@H](C)CCC[C@H](C)O)C[C@H]1O (stereo partly drawn) [A4, 2-methylene-(20S,25S)-19,26-dinor-1α,25-dihydroxyvitamin D3]		very little bone calcium mobilization activity	promotes intestinal calcium transport only slightly	0.5 nM	0.03 nM	did not result in mobilization of bone calcium	without any substantial effect	approximately 100 times	significant intestinal calcium transport activity	very little activity

Reference: patent US7947666B2, “2-methylene-(20S,25S)-19,26-dinor-vitamin D analogs” (Wisconsin Alumni Research Foundation, priority 2007, dated 2011)
